Source: article PMC12581733, “Microbial Transglutaminase Increases Uptake and Translocation of Gliadin Peptides in the Human Intestinal Epithelium” (Molecular Nutrition & Food Research, 2025)

T1: TG2 (Homo sapiens, UniProt P21980)
T1 construct: purchased Zedira T022
T1 sequence (P21980 1-687): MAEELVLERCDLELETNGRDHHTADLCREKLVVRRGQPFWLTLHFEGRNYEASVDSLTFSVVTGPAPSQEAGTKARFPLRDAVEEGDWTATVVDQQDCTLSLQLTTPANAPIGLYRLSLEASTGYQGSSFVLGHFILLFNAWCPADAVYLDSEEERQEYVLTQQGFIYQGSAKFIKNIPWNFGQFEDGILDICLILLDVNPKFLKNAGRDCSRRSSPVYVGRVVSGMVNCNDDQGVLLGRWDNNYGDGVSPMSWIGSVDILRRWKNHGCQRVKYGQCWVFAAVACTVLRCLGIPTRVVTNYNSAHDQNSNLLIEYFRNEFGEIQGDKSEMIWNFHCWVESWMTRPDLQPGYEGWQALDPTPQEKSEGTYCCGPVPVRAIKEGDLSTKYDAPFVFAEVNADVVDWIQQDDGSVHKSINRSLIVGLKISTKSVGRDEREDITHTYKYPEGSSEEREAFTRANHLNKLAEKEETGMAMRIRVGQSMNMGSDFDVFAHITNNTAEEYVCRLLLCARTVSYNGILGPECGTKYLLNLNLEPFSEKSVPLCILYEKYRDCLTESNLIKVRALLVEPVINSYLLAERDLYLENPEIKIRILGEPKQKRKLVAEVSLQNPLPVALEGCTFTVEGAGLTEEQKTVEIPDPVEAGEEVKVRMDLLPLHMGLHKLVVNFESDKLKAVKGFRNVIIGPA


Key:
[1] = test system: Caco‐2 cells; conditions: inhibitor 100 µM, TG2 100 nM, biotinylated P56-88 and P31-49; fluorometry
[2] = molecular target: T1, TG2; assay: In vitro transamidation (crosslinking) of gliadin peptides, indirect ELISA, TG2; type: biochemical; conditions: inhibitor 100 µM, Fig. 1A
Protocol: TG2 (10 nM, T022, Zedira, Darmstadt, Germany) or mTG (10 nM, T001, Zedira) were immobilized on a 96‐well plate (Sarstedt, Nümbrecht, Germany) in 50 mM Tris, 1 mM ethylenediamine tetraacetic acid (EDTA), 5 mM calcium chloride (pH 7.5) buffer containing 10 mM dithiotreitol (DTT, Merck KGaA, Darmstadt, Germany). After blocking with 2% bovine serum albumin (BSA, Carl Roth GmbH, Karlsruhe, Germany), the transglutaminase inhibitors ERW1041 (5095220001, Sigma–Aldrich, Darmstadt, Germany) and mTG‐blocker (C102, Zedira, each 100 µM) were applied according to protocol. Immobilized transglutaminases were incubated with biotin‐conjugated gliadin peptides or pepsin/trypsin digested gliadin (PTG, Table 2). Detection of crosslinked biotinylated gliadin peptides and PTG was done using horseradish peroxidase (HRP)‐conjugated streptavidin (1:2500, 405210, Biolegend, San Diego, CA, USA) or a specific gliadin antibody (1:1000, clone XGY4, Zedira) and the corresponding secondary HRP‐conjugated antibody (1:1000; sc‐516102, Santa Cruz Biotechnology, Dallas, TX, USA). The HRP‐substrate tetramethylbenzidine (TMB, T0440, Sigma–Aldrich, Darmstadt, Germany) was added, and photometric quantitation at 655 nm was performed after 15 min using a Clariostar Plus microplate reader (BMG Labtech, Ortenberg, Germany).

[3] = test system: Caco‐2 cells; conditions: inhibitor 100 µM, TG2 100 nM; immunofluorescence microscopy
[4] = molecular target: T1, TG2; assay: Immunoblot of gliadin-transglutaminase complexes; type: biochemical; conditions: TG2 1 µM, ERW1041 100 µM, 30 min, 37°C, n = 3
Protocol: TG2 or mTG (1 µM) was incubated with gliadin peptides (Table 2) with or without ERW1041 as TG2 blocker or the mTG‐blocker (100 µM) in Tris buffer. Biotinylated gliadin peptides or PTG was added to the solution at the indicated concentrations, and incubation was performed for 30 min at 37°C. The reaction was stopped by placing the samples on ice. Detailed description of the conditions for electrophoresis and blotting have been published elsewhere. After blocking the membrane for 1 h with 5% nonfat dry milk in phosphate buffered saline (PBS) + 2.5% tween, incubation with the primary antibody was performed at 4°C overnight (Table 3). The next day, incubation with the corresponding HRP‐conjugated secondary antibody was done. The crosslinking of biotinylated gliadin peptides was detected by streptavidin‐HRP alone. Visualization was done with the Super‐Signal West Femto kit (34096, Thermo Fisher Scientific, Langenselbold, Germany) for 5 min. Image processing and quantitation were performed using a ChemiDoc XRS+ imager and Image Lab software (BioRad Laboratories, Feldkirchen, Germany).

[5] = molecular target: T1, TG2; assay: Extracellular crosslinking of 5BP to the Caco-2 cell surface by TG2; type: cell-based; conditions: 5BP 500 µM, TG2 100 nM, 1 h; dose-dependent; fluorometry and confocal microscopy
Protocol: Confluent Caco‐2 cell monolayers were incubated with the transglutaminase substrate EZ‐link pentylamine‐biotin (5‐biotinamidopentylamine [5BP], 500 µM, 21345, Thermo Fisher Scientific) with or without mTG or TG2 (100 nM) in Tris buffer for 1 h. Corresponding transglutaminase inhibitors ERW1041 and mTG‐blocker were added to the solution at the indicated concentration. After fixation with 4% paraformaldehyde and blocking with 5% BSA, cells were incubated with streptavidin‐Alexa Fluor488 (S11223, 4 µg/mL, Thermo Fisher Scientific). Fluorometric quantitation was conducted using a FLUOstar Optima microplate reader (BMG Labtech, Ortenberg, Germany). For immunofluorescence microscopy, nuclei were stained with Hoechst dye (1:1000 in PBS, 44442, Thermo Fisher Scientific) for 10 min. Microscopy was done using a confocal laser scanning microscope (TE2000‐E, Nikon) and 20x Plan Apo […] objective. Image processing and quantitation were performed using ImageJ [32].

[6] = test system: Caco‐2 cells; assay: Cell viability, PrestoBlue HS assay; type: cell-based, human; conditions: used concentrations, 24 hours in culture medium; PrestoBlue HS 2 hours; Figure S1
Protocol: The effect of transglutaminases on the viability of Caco‐2 cells was investigated using the resazurin‐based PrestoBlue HS assay (P50200, Thermo Fisher Scientific) as described elsewhere. Details are provided in the Supporting Information.
Cells were incubated with mTG or TG2 at the indicated concentrations for 24 hours in culture medium. Incubation with PrestoBlue HS, diluted 1:10 in medium was performed for 2 hours at 37°C. Fluorometric examination was conducted using a Clariostar Plus microplate reader.

| Effect of inhibitor on TG2-mediated crosslinking of 5BP to the cell surface [5] | Molecule | Effect of inhibitor on TG2-mediated gliadin peptide uptake [1] | Effect of inhibitor on TG2-mediated crosslinking of PTG [2] | Effect of inhibitor on TG2-enhanced cellular uptake of P56-88 [3] | Effect of inhibitor on transamidation of gliadin peptides to TG2 [4] | Effect on cell viability [6] |
| --- | --- | --- | --- | --- | --- | --- |
| reduced crosslinking of 5BP | O=C(NC[C@@H]1CC(Br)=NO1)[C@@H]1CCCN1C(=O)OCc1cnc2ccccc2c1 [ERW1041] | to the baseline level | significantly reduced crosslinking of PTG | reduced cellular peptide uptake to the baseline level | significantly reduced transamidation of all gliadin peptides to TG2 | – |
| – | TG2: transglutaminase 2 (T022, Zedira) (protein, UniProt P21980 2-687, looked up) Protein-glutamine …: AEELVLERCDLELETNGRDHHTADLCREKLVVRRGQPFWLTLHFEGRNYEASVDSLTFSVVTGPAPSQEAGTKARFPLRDAVEEGDWTATVVDQQDCTLSLQLTTPANAPIGLYRLSLEASTGYQGSSFVLGHFILLFNAWCPADAVYLDSEEERQEYVLTQQGFIYQGSAKFIKNIPWNFGQFEDGILDICLILLDVNPKFLKNAGRDCSRRSSPVYVGRVVSGMVNCNDDQGVLLGRWDNNYGDGVSPMSWIGSVDILRRWKNHGCQRVKYGQCWVFAAVACTVLRCLGIPTRVVTNYNSAHDQNSNLLIEYFRNEFGEIQGDKSEMIWNFHCWVESWMTRPDLQPGYEGWQALDPTPQEKSEGTYCCGPVPVRAIKEGDLSTKYDAPFVFAEVNADVVDWIQQDDGSVHKSINRSLIVGLKISTKSVGRDEREDITHTYKYPEGSSEEREAFTRANHLNKLAEKEETGMAMRIRVGQSMNMGSDFDVFAHITNNTAEEYVCRLLLCARTVSYNGILGPECGTKYLLNLNLEPFSEKSVPLCILYEKYRDCLTESNLIKVRALLVEPVINSYLLAERDLYLENPEIKIRILGEPKQKRKLVAEVSLQNPLPVALEGCTFTVEGAGLTEEQKTVEIPDPVEAGEEVKVRMDLLPLHMGLHKLVVNFESDKLKAVKGFRNVIIGPA | – | – | – | – | did not affect cell viability |
